# “Also recorded” adds a separate entry of the source.
# Key:
# [1] = biological target: histone acetyltransferase p300 (Homo sapiens, UniProt Q09472); experiment: Inhibitory activity towards histone acetyltransferase p300; assay type: biochemical
# Description: In accordance with one or more embodiments of the present invention, the role of H3K9me3 in learning and memory in an animal model of aging using a newly developed analog of the epidithiodiketopiperazine alkaloid chaetocin A called ETP69, illustrated in FIG. 1, is studied.
# [2] = biological target: DNA methyltransferase DNMT1 (Homo sapiens, UniProt P26358); experiment: Inhibitory activity towards DNA methyltransferase DNMT1; assay type: biochemical
# Chain of DNA methyltransferase DNMT1 (P26358 whole entry): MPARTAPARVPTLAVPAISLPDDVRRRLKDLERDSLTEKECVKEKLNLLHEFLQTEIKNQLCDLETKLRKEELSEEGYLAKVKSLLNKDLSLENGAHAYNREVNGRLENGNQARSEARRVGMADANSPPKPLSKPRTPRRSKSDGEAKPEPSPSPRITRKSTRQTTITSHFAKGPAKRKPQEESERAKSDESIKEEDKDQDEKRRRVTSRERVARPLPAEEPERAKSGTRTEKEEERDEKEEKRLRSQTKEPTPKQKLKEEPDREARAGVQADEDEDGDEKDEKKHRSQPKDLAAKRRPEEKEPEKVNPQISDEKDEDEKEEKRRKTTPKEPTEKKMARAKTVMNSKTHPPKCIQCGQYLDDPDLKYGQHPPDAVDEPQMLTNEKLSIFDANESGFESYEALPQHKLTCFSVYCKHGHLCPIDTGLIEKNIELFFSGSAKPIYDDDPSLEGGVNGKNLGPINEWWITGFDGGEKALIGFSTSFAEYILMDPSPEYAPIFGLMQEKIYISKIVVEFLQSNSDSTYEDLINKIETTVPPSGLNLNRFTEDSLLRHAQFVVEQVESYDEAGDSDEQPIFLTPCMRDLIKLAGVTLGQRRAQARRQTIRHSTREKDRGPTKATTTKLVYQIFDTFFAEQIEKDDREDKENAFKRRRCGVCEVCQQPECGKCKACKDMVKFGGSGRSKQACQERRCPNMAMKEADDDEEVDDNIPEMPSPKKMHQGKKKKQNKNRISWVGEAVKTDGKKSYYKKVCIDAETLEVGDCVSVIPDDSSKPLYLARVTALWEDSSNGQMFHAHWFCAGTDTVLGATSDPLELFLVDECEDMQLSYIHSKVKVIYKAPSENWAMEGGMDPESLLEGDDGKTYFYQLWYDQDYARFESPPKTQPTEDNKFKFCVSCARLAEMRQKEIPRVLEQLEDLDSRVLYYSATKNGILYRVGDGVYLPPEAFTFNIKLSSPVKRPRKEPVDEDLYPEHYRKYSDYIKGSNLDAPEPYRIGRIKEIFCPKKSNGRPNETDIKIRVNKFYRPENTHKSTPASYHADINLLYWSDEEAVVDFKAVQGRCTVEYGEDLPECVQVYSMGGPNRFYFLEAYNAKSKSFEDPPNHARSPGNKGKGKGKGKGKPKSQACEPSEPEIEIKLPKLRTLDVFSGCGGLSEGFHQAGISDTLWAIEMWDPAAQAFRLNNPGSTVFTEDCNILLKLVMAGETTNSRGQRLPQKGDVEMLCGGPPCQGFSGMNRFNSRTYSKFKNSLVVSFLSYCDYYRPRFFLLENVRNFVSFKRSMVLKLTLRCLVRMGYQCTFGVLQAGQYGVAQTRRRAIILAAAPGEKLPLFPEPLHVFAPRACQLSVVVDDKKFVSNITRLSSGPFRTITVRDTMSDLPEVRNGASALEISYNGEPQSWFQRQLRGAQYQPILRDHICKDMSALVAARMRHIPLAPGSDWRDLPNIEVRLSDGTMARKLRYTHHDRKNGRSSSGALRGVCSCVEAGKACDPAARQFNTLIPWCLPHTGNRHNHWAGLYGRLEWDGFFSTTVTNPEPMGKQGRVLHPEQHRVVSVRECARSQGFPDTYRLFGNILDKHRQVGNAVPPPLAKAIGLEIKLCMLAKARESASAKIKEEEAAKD
# aged C57Bl/6J male mice = experiment: Object location memory (OLM) task in aged mice; assay type: in vivo; conditions: for OLM retention: memory performance (exploration of novel versus familiar location): retention test 24 hours later
# Experimental: (§1) Object Location Memory (OLM): Training and testing procedures were performed using a standard OLM protocol. Briefly, 22 aged mice and 18 young mice were handled for about 2-3 minutes per day for 5 days, followed by habituation to the experimental apparatus (white rectangular open field measuring 30×23×21.5 cm) for 5 min per day for 5 consecutive days before training.
# Dose Response in OLM: On the test day mice were given 3 minutes of habituation (in an empty test arena) followed by i.p. injection of ETP69 (10 mg/kg (n=8) or 20 mg/kg (n=7)) or vehicle (n=7). Mice were then given a 3-min acquisition trial (with 2 similar objects placed in the arena opposite each other) 30 minutes after the i.p. injection of drug or vehicle and all animals were then returned to their home cages for a 24 hour inter-trial interval. Twenty-four hours later, a 3-minute retention test was administered, where one object was moved to a novel location and the amount of time the animals spent exploring the novel versus familiar location was recorded in order to evaluate the dose response in the OLM task. Since animals that had received 10 mg/kg performed better than other groups in the OLM task, 10 mg/kg was used for the remainder of the study. This OLM paradigm has previously shown to be subthreshold for learning.
# (§2) Acquisition (pre-training) or Consolidation (post-training): In another test, aimed to determine the efficacy of the compound in pre and post training paradigms, the same group of 22 aged animals were retested on the OLM task 3 weeks after the first test. To determine whether the drug impacted acquisition or consolidation mechanisms, mice were injected with the 10 mg/kg compound (i.p. n=7) or vehicle (n=8). Animals were sacrificed right after retention testing (i.e. 24 hours post injection), and hippocampi were removed, rapidly frozen on dry ice, and stored at −80° C. until processing for trimethylation levels and BDNF assay. FIG. 2 is a graphical representation of the effect of the drug at 10 mg/kg and 20 mg/kg (i.p) administered 30 minutes prior to acquisition phase in the novel place position task in mice. […] Data are mean±SEM; n=7 or 8/group.
# young C57Bl/6J male mice = experiment: Object location memory (OLM) task in young mice; assay type: in vivo
# Experimental: as §1
# 18 young mice were also tested in the same OLM paradigm as described above. To determine whether the drug impacted acquisition or consolidation mechanisms, the young mice were injected with the 10 mg/kg compound or vehicle (i.p, n=6/group), either just before or right after the acquisition trial, and tested 24 hours post-acquisition. FIG. 3 is a graphical representation of the results of OLM test showing the differences in exploration between mice treated with either vehicle, or 10 mg/kg of ETP69. […] Data are mean±SEM; n=7 or 8/group.
# aged mice = experiment: Unsupervised learning task (USL) in aged mice; assay type: in vivo; conditions: 10 mg/kg i.p.
# Experimental: Unsupervised learning task: A new group of 12 aged animals were used for the unsupervised learning task. Procedures were adapted from published work. The unsupervised learning (USL) behavioral apparatus consisted of a large open field divided by walls into 4 chambers, all accessible by small entrances in each dividing wall. The animals can also access a smaller attached enclosed dark compartment by an open entrance. After 5 days of handling, animals were injected with ETP69 (10 mg/kg, i.p.) or vehicle and placed in the video-monitored USL box for thirty minutes, and the returned to the home cage. 24 hours later the animals were placed in the USL box again and euthanized immediately after. Their brains were rapidly removed, hippocampus dissected rapidly, frozen on dry ice, and stored at −80° C. until further processing
# To evaluate if H3K9me3 is implicated in measures of spatial learning and to evaluate molecular endpoints, a second series of experiments was conducted with the USL task being the behavioral endpoint. The USL task is a simple behavioral paradigm in which mice are allowed to freely explore a four-compartment environment for a specified period of time. Reduction in overall activity and exploration of the test arena over this time is considered a measure of learning and short-term memory. […]
# BDNF = experiment: ELISA for BDNF protein in hippocampus; assay type: in vivo; conditions: aged mice; 10 mg/kg i.p. before or right after OLM acquisition; versus controls
# Experimental: as §2
# ELISA was performed using the BDNF Emax Immunoassay System (G7610, Promega) according to the manufacturer's instructions. Two sets of samples were prepared from the hippocampus of each animal, and all reactions were performed in duplicate.
# Arc = Arc changes after ETP69 treatment (data not shown); assay type: in vivo, mice
# [3] = system: 14 DIV hippocampal neurons; experiment: Oxygen-glucose deprivation (OGD)-induced cytotoxicity, LDH assay; assay type: cell-based; conditions: OGD 2 hours, LDH 48 hours after OGD
# Experimental: OGD in 14 DIV hippocampal neurons was induced by an approach similar to that described by Newcomb-Fernandez et al (2001). Normal media was replaced with PBS and culture plates were placed in an airtight chamber. The chamber was flushed with N2 and CO2 for 3 minutes, sealed, and placed in a 37° C. incubator for 2 hours. PBS was replaced with DMEM (serum-free) and cultures were returned to a normoxic environment. Culture medium was collected 48 hours after the cultures had returned to a normal environment. The cytotoxicity was measured by LDH assay (Thermo-Fisher). To calculate % Cytotoxicity, subtract the LDH activity of the Spontaneous LDH, release Control (water-treated) from the chemical-treated sample LDH activity, divide by the total LDH activity [(Maximum LDH Release Control activity)—(Spontaneous LDH Release Control activity)], and multiply by 100:
# Initially we tested the effect of ETP69 on oxygen-glucose deprivation (OGD)-induced cytotoxicity. Mature hippocampal neurons (14 DIV) were treated with OGD for 2 hours in the presence or absence of ETP69. Cytotoxicity was measured by LDH assay 48 hours after OGD. […] FIG. 13 is a graphical illustration of the effect of ETP69 on neuronal survival after oxygen-glucose deprivation (OGD). 14 DIV hippocampal neurons were treated with OGD for 2 hours in the presence or absence of ETP. Cytotoxicity was measured by LDH assay 48 hours after OGD. […]
# Chain of histone acetyltransferase p300 (Q09472 whole entry, species assumed): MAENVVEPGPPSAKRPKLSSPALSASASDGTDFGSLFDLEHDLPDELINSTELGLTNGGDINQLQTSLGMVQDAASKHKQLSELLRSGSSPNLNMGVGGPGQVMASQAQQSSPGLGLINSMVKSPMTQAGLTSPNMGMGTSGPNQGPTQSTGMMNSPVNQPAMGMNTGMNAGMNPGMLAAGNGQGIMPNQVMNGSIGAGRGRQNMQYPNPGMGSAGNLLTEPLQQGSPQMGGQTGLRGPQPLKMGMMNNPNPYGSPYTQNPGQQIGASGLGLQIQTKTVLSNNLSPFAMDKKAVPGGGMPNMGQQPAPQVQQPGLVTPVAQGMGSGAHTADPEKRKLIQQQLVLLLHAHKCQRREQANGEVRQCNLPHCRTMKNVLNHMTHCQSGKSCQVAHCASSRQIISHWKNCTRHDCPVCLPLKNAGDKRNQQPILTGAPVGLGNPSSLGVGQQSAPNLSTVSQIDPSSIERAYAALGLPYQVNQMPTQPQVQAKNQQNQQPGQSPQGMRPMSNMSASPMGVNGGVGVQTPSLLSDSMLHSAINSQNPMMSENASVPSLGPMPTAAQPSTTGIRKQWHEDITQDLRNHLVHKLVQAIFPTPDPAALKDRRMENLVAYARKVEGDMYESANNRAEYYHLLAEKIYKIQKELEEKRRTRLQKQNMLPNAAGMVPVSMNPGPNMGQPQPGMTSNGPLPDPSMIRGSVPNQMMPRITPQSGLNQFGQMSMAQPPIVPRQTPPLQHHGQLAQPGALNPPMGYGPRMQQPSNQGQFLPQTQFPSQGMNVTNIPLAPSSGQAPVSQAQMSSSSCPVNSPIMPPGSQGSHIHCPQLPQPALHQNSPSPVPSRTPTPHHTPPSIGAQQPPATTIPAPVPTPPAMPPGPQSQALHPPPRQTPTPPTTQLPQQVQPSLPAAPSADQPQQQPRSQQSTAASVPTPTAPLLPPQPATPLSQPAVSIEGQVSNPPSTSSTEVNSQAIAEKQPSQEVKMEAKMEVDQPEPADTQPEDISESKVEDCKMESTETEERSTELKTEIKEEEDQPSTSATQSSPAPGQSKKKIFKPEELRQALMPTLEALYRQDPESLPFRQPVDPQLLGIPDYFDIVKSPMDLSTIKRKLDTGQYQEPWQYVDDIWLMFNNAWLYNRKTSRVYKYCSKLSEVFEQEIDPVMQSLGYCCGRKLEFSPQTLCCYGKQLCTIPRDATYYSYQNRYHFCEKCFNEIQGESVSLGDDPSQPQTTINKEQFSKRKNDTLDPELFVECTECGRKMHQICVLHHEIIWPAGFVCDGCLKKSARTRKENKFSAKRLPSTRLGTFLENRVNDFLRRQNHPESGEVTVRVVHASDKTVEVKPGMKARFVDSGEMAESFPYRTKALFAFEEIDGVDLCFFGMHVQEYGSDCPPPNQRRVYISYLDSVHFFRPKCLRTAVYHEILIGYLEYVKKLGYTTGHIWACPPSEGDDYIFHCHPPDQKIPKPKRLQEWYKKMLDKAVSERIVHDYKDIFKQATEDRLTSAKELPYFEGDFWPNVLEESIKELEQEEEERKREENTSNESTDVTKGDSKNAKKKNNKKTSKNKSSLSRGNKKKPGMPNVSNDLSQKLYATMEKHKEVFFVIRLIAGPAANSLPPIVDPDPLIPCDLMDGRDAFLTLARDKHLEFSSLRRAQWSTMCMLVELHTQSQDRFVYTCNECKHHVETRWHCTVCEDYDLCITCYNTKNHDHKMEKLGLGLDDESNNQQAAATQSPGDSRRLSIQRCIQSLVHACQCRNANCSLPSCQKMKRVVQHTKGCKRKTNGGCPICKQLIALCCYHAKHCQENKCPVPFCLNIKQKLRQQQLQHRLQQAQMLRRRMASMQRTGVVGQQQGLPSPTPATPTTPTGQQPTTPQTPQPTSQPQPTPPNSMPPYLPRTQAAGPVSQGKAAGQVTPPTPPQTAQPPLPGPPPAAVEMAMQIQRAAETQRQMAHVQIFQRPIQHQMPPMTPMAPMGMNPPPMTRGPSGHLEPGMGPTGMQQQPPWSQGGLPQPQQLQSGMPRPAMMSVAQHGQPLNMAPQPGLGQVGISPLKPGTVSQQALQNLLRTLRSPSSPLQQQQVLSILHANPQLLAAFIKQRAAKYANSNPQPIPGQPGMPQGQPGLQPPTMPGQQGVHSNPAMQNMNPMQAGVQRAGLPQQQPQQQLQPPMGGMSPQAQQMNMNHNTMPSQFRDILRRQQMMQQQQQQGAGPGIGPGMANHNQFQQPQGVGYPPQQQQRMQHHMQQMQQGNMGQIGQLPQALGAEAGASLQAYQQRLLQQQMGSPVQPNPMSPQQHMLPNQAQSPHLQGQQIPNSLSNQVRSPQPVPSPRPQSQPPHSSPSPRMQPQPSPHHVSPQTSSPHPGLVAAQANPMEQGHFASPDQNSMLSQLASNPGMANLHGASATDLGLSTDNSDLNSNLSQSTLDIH
compound,measurement,setting,value
"CN1C(=O)[C@@]23C[C@](C)(C#N)[C@H](c4ccc5c(c4)OCO5)N2C(=O)[C@]1(C)SS3 (racemic) [ETP69, Rac-(3S,6S,7S,8aS)-6-(benzo[d][1,3]dioxol-5-yl)-2,3,7-trimethyl-1,4-dioxohexahydro-6H-3,8a-epidithiopyrrolo[1,2-a]pyrazine-7-carbonitrile]",inhibitory activity towards histone acetyltransferase p300,[1],no inhibitory activity
same,inhibitory activity towards DNA methyltransferase DNMT1,[2],no inhibitory activity
same,OLM acquisition phase: object exploration (seconds),aged C57Bl/6J male mice; 10 mg/kg and 20 mg/kg i.p. 30 minutes before acquisition,no difference in object exploration
same,"OLM acquisition phase, pre/post-trial experiment: group differences",aged C57Bl/6J male mice; 10 mg/kg i.p.,no significant group differences
same,OLM retention: memory performance (exploration of novel versus familiar location),"aged C57Bl/6J male mice; 10 mg/kg i.p. 30 minutes before acquisition, 10 mg/kg",explored the novel object significantly (measured in seconds) more than the familiar object; also recorded: induced memory improvements
same,"OLM performance, pre-trial administration","aged C57Bl/6J male mice; 10 mg/kg i.p. 30 minutes prior to acquisition phase, tested 24 h",improved performance in the OLM task
same,"OLM performance, post-trial administration","aged C57Bl/6J male mice; 10 mg/kg i.p. immediately after acquisition, tested 24 h",improved performance in the OLM task
same,OLM acquisition phase: total exploration time,aged C57Bl/6J male mice; 20 mg/kg i.p.,decrease in total exploration time
same,OLM retention: memory performance (exploration of novel versus familiar location),"aged C57Bl/6J male mice; 20 mg/kg i.p. 30 minutes before acquisition, 20 mg/kg",performed similar to aged controls; also recorded: but not 20 mg/kg induced memory improvements
same,OLM acquisition phase: group differences,young C57Bl/6J male mice; 10 mg/kg i.p.,no significant group differences
same,"OLM performance, pre-trial administration",young C57Bl/6J male mice; 10 mg/kg i.p. 30 minutes prior to acquisition phase,did not show any statistical differences
same,"OLM performance, post-trial administration",young C57Bl/6J male mice; 10 mg/kg i.p. immediately after acquisition,did not show any statistical differences
same,"USL total distance travelled over 30 minutes, Day 1 versus Day 2",aged mice,significant decrease in total distance travelled
same,"USL habituation/exploration (distance travelled), Day 2 versus Day 1",aged mice; 24 hours after treatment,significant decrease in habituation/exploration
same,BDNF protein levels in hippocampus,BDNF,significantly elevated levels of BDNF
same,changes in Arc,Arc,did not observe changes in Arc
same,OGD-induced cytotoxicity (LDH),[3]; 4 nM,rescued neurons from OGD-induced cytotoxicity
same,OGD-induced cytotoxicity (LDH),[3]; 100 nM,not 100 nM rescued neurons from OGD-induced cytotoxicity

# Source: patent US12622916B2, “Use of H3K9me3 modulation for enhancing cognitive function” (THE REGENTS OF THE UNIVERSITY OF CALIFORNIA, priority 2015, dated 2026)
